Columns and labels:
FATP5 = experiment: Hepatic FATP5 expression (Northern blotting) in ZDF rats treated with LGD 1069; assay type: in vivo, rat; conditions: LGD 1069 in food 0.3-30 mg/kg/day for 50 days from age 7 weeks; Northern blot; FIG. 15
Protocol: Male diabetic fatty rats (Zucker diabetic fatty rats (ZDF rats)) are kept in an animal house with free access to food and water, the nyctohemeral rhythm being observed.
(§1) The compound LGD 1069 is added to the food at a dose of 0.3, 1.0, 3.0, 10 or 30 mg/kg/day and administered for 50 days as from the age of 7 weeks. 4 animals are fed without the addition of LGD 1069: 2 ZDF and 2 ZLC. The animals are fasted and sacrificed the next day. The tissues are collected and frozen immediately in liquid nitrogen.
The hepatic RNAs are extracted by the conventional technique derived from Chomczynski and Sacchi. The expression is analysed by Northern blotting with hybridization using a radioactive cDNA probe specific for FATP5.

ZDF rats = experiment: Reversal of the diabetic phenotype in the ZDF rat by an insulin sensitizer; assay type: in vivo; conditions: LGD 1069 in food 0.3-30 mg/kg/day for 50 days from age 7 weeks
Protocol: as §1, with “Male diabetic fatty rats (Zucker diabetic fatty rats (ZDF rats)) are kept in an animal house with free access to food and water, the nyctohemeral rhythm being observed. The compound” for “The compound”

## C=C(c1ccc(C(=O)O)cc1)c1cc2c(cc1C)C(C)(C)CCC2(C)C [RXR agonist, bexarotene]
FATP5
  Negative regulation of the expression of FATP5 in the liver of ZDF rats compared with ZLC rats: counteracted
ZDF rats
  development of diabetes: reverses the development of diabetes

Source: patent US20070105115A1, “Promoter of the human fatp5 gene and uses” (MERCK SANTE, priority 2003, published 2007)
